From the NIST ThermoML archive (doi:10.1016/j.jct.2005.03.006)

Assay: wn = mass fraction of the nth substance listed
Conditions: Liquid, Buoyancy - hydrostatic balance

c1ccccc1 [benzene] + CO
mass density [kg/m3]
Conditions	100 kPa	5000 kPa	9900 kPa	19700 kPa	29500 kPa	39300 kPa	49100 kPa	58900 kPa
287.65 K, w2 = 0.5	840.5	844.4	847.9	855.8	863	869.5	875.2	881
291.15 K, w2 = 0.25	857.7	862	866.1	873.8	880.6	887.3	893.2	899.1
292.65 K, w2 = 0.75	815.2	819.9	824.2	832.1	839.2	846.4	852.5	858.7
297.35 K, w2 = 0.5	830.9	835.6	839.9	847.7	855	862.1	868	874
313.66 K, w2 = 0.25	835	840.1	844.8	852.9	860.8	868.4	875.1	881
314.15 K, w2 = 0.75	795.6	800.3	804.7	813	821.1	828.8	835.9	–
322.15 K, w2 = 0.5	806.5	811.8	817	825.3	833.4	841.4	848.2	855.1
337.37 K, w2 = 0.25	–	816.2	822.1	831	840	848.3	856	862.7
338.35 K, w2 = 0.75	–	776.6	781.6	791	800.2	809	817.1	823.9
341.35 K, w2 = 0.5	–	791.4	797.7	807.3	816.2	825.1	832.9	840
356.15 K, w2 = 0.5	–	775.2	781.8	792	802.8	811.7	819.8	827.6
361.64 K, w2 = 0.25	–	789.2	796.5	806.8	817.1	826.9	835	842.7
361.65 K, w2 = 0.75	–	750.9	757	767.9	778.4	788.1	797	804.9
376.65 K, w2 = 0.5	–	750.9	758.2	770.8	784	793.2	801.8	–
383.15 K, w2 = 0.75	–	724.9	732.5	745	757.4	768.2	777.8	786.9
383.16 K, w2 = 0.25	–	764.1	772.6	784.4	796.3	807.6	815.9	824.8
402.15 K, w2 = 0.5	–	718.4	726.6	742.7	757.7	769	778.9	788.6
406.65 K, w2 = 0.75	–	693.4	703.3	718.9	733.3	745	755.9	766.2
407.66 K, w2 = 0.25	–	732	741.5	757.6	771.3	784.6	793.3	803.2
428.15 K, w2 = 0.5	–	678.8	689.5	710.6	728.7	742.1	753.2	764.7
429.26 K, w2 = 0.25	–	699.7	710.6	731.1	748.2	762.9	773	783.8
431.35 K, w2 = 0.75	–	656.6	667.9	689.5	706.7	720	732.5	744.1
453.2 K, w2 = 0.25	–	659.6	673.3	699.7	720.8	736.9	748.8	760.9
453.65 K, w2 = 0.5	–	634	649.1	676.5	697.6	714	727	739.3
458.5 K, w2 = 0.75	–	605.4	624.7	653.6	674.8	690.2	705	718.3
475.26 K, w2 = 0.25	–	616.4	639.6	669.8	694.3	710.8	725.7	739.4
477.35 K, w2 = 0.75	–	558.2	590.9	628.5	652.3	669.8	686.2	699.9
496.65 K, w2 = 0.75	–	483.6	549.1	601.8	628.5	647.8	665.6	680.8
497.15 K, w2 = 0.5	–	520.7	570	617.6	643.1	661.9	680.8	694.6
497.17 K, w2 = 0.25	–	566.6	598.9	639	664.5	684.2	701.6	717

CCc1ccccc1 [ethylbenzene] + CO
mass density [kg/m3]
Conditions	100 kPa	5000 kPa	9900 kPa	19700 kPa	29700 kPa	39300 kPa	49100 kPa	58900 kPa
292.05 K, w2 = 0.5	830.6	834.1	838.5	845.6	852.2	858.6	864.4	871.2
292.4 K, w2 = 0.75	813.3	817.6	822.1	827.7	836.5	843	848.8	855.8
292.65 K, w2 = 0.25	848	851.5	855.3	862.7	868.8	874.8	880.7	886.8
314.55 K, w2 = 0.5	810.8	815.2	819.6	827.8	835.2	842	848.6	854.4
314.65 K, w2 = 0.25	828.6	833.1	837.2	845.1	852	859	869.3	871.5
317.6 K, w2 = 0.75	795.3	799.8	804	810.8	820.2	827.4	–	840.4
335.35 K, w2 = 0.75	–	778.8	783	790.7	801.3	809.4	816.4	823.5
335.45 K, w2 = 0.25	–	815	819.5	828.3	836.8	844.1	850.4	856.4
337.65 K, w2 = 0.5	–	794.3	799.5	808.3	816.7	824.4	831.7	837.8
358.8 K, w2 = 0.75	–	754.4	759.7	768.5	780.5	789.6	797.4	805.5
359.95 K, w2 = 0.25	–	790.3	796.2	807.6	817.7	825.5	831.8	838
360.45 K, w2 = 0.5	–	771.3	778.5	788.1	797.9	806.5	814.1	820.5
384.05 K, w2 = 0.75	–	725.4	732.8	743	757.2	767.3	776.2	785.4
384.45 K, w2 = 0.5	–	744	754.8	766.4	777.5	786.6	797.7	801.6
385.75 K, w2 = 0.25	–	763.2	770.7	785.7	797.4	806	813	819.7
407.15 K, w2 = 0.25	–	739	748.1	765	778.9	–	796.4	804.1
408.15 K, w2 = 0.5	–	713.2	729.5	742.4	754.8	765.3	774.1	783
410.05 K, w2 = 0.75	–	691	701	714.3	731.6	742.6	753.1	763
433.5 K, w2 = 0.25	–	707.9	719.4	739	755.8	767	775	784.4
434.15 K, w2 = 0.5	–	677.4	695.9	712.8	728.6	741.1	751.2	761.4
434.35 K, w2 = 0.75	–	654.7	668.2	686	706.5	719	730.7	742.3
459.55 K, w2 = 0.75	–	608.3	628.7	651.4	677.4	692.5	706.4	719.5
460.25 K, w2 = 0.5	–	634.7	653.7	677.5	697.7	713.4	726.4	738.3
460.45 K, w2 = 0.25	–	668.7	683.4	708.2	727.1	740.5	751.2	761.5
489.65 K, w2 = 0.75	–	527.2	571	607	640.3	659.7	677.3	692.8
491.15 K, w2 = 0.5	–	554	594.2	633.2	656.5	–	693	708.6
497.95 K, w2 = 0.25	–	623	640.4	671	693.7	710.4	724.5	736
